Laboratory results: PMC3985586, “Cratoxylum formosum (Jack) Dyer ssp. pruniflorum (Kurz) Gogel. (Hóng yá mù) extract induces apoptosis in human hepatocellular carcinoma HepG2 cells through caspase-dependent pathways” (Chinese Medicine, 2014)
Values after ≈ are worked out from the molar mass of the structure shown.

Columns and labels:
HepG2 cells [1] = experiment: Mitochondrial membrane potential (DiOC6, flow cytometry); assay type: cell-based, human; settings: HepG2, 35% (v/v) H2O2 positive control, 12 and 24 h, P < 0.001
Protocol: Cells (1 × 10^6 cells/mL) were seeded into a 24-well plate, incubated at 37°C for 24 h, and then treated with 0, 30, 60, or 120 μg/mL of CF extract for 12 or 24 h. Concentrated hydrogen peroxide (35%, v/v) was used as a positive control. Next, the cells were washed, harvested by trypsinization, transferred to a microcentrifuge tube, and stained with a lipophilic fluorogenic dye, DiOC6, at 40 nM for 30 min in the dark at 37°C. After the incubation, the cells were immediately analyzed by flow cytometry (BD FACSCanto II, San Jose, CA, USA) for incorporation of the fluorochrome.

HepG2 cells [2] = experiment: Neutral red cytotoxicity assay, HepG2; assay type: cell-based, human
Protocol: (§1) Cell viability was measured by an NR colorimetric assay. Human HepG2 cells and normal African green monkey kidney Vero cells were used as cell models to determine the percent cytotoxicity. Briefly, cells (4 × 10^6 cells/mL) were treated with CF extract at various concentrations (10, 25, 50, 100, 250, and 500 μg/mL) and the standard anticancer drug melphalan as a positive control, while the untreated groups were exposed to fresh medium at equal volumes to those used for the treated groups. After 24 h of exposure, the cells were incubated for 2 h with NR dye (50 μg/mL) dissolved in DMEM, and then washed with phosphate-buffered saline (PBS; pH 7.4). Finally, the cells were lysed with 0.33% HCl/isopropanol. A microplate reader (Tecan, France) was used to measure the absorbances of NR dye in the viable cells at 520 and 650 (reference) nm. The percentage of cell cytotoxicity of the CF extract was calculated as described by Machana et al.[18] and compared with that of melphalan. The selectivity index (SI) was calculated to determine the selective cancer cell line cytotoxicity. The SI of the test compound was compared with the IC50 for the Vero cells divided by the IC50 for the HepG2 cells.

Vero cells = experiment: Neutral red cytotoxicity assay, Vero; assay type: cell-based, African green monkey; settings: Chlorocebus sabaeus, 24 h, read-out: IC50 ± SD Vero
Protocol: as §1

HepG2 cells [3] = experiment: DAPI staining apoptosis induction assay; assay type: cell-based, human; settings: HepG2, 24 h, CF 120 μg/mL, melphalan 80 μg/mL (2 × IC50)
Protocol: Cells (1 × 10^6 cells/well) were treated with CF extract and the melphalan for 24 h at 2 × IC50, and the morphological changes of the induced apoptotic cells were determined by DAPI staining. The concentrations of CF extract and melphalan used in the following apoptosis experiments were 120 and 80 μg/mL, respectively. The cells were fixed in pure methanol at 4°C for 10 min, and then stained with DAPI (1 μg/mL) at room temperature in the dark. The excess dye was removed and glycerin was added to the cells with PBS at a 1:1 ratio and mixed well. Next, the cells were fixed on a slide and the apoptotic bodies observed at 40× objective magnification under an inverted fluorescence microscope (Eclipse TS100; Nikon, UK). The percentage of apoptotic cells was calculated as described by Machana et al.[18]. The average% apoptotic cells were calculated from three independent wells with 10 eye views in each well.

Compound | Alteration of MMP compared to untreated cells (HepG2 cells [1]) | IC50 (HepG2 cells [2]; Homo sapiens, HepG2, 24 h, read-out: IC50 ± SD HepG2) [µg/mL] | Selectivity index (SI) (HepG2 cells [2]; IC50 for Vero cells divided by IC50 for HepG2 cells, SI > 3 indicates high selectivity) | IC50 (Vero cells) [µg/mL] | Percentage of apoptotic cells (HepG2 cells [3]) [%]
OO [H2O2, hydrogen peroxide] | significantly different | – | – | – | –
N[C@@H](Cc1ccc(N(CCCl)CCCl)cc1)C(=O)O [Melphalan, melphalan] | – | 37.7 ± 9.8 (≈ 124 µM) | 1.6 | 59.9 ± 3.2 (≈ 196 µM) | 41.6 ± 2.1
